Data: US7829587B2, “Substituted 2-aminotetralin derivatives as selective alpha 2B agonist” (Allergan, Inc., priority 2008, dated 2010)

Tests used:
Format in all cases: cell-based
[1] = molecular target: T1, mouse α2B receptor (Mus musculus, UniProt P30545); experiment: FLIPR Ca+2 influx assay, α2B; details: for Relative efficacy FLIPR α2B: relative efficacy compared to standard full agonist norepinephrine, HEK 293, mouse α2B/Gα16
T1 construct: expressed in transfected cells; host or cells: HEK 293
T1 sequence (P30545 1-453): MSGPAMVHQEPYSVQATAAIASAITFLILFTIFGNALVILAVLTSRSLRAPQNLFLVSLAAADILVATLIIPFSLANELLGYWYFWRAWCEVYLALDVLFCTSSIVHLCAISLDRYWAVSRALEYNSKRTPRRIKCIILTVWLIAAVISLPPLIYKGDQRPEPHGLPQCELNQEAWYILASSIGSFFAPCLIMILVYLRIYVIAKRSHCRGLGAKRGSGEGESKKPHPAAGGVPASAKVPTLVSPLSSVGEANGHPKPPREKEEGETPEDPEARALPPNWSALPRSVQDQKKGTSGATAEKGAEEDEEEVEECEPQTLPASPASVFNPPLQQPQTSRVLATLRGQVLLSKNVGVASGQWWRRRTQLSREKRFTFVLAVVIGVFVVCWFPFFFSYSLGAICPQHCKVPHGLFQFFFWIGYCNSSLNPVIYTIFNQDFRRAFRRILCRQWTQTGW
Experimental: (§1) The compounds disclosed herein are agonists of alpha 2B/2C adrenergic receptors. […] This assay is adequate for monitoring the intracellular Ca^2+ mobilization from fluorescent reading to evaluate receptor agonists.
(§2) FLIPR Ca+2 Influx Assay: HEK 293 cells stably expressing the bovine α1A receptor, the rat α1B receptor, the human α2A receptor and the chimeric G protein Gqi5, the human α2C receptor and the chimeric G protein Gqi5 and the mouse α2B receptor and the Gα16 protein were plated in poly-D-lysine coated 384 well plates at 15,000-25,000 cells per well and grown overnight in DMEM supplemented with 10% fetal bovine serum. For FLIPR (fluorometric image plate reader) evaluation, cells were washed 2-4 times with HBSS/HEPES Buffer (1× Hanks Buffered Salt Solution, 20 mM HEPES<pH 7.4) prior to the addition of Fluo-4-AM (4 uM Fluo-4-AM, 0.04% pluronic acid in HBSS/HEPES Buffer), a calcium-sensitive dye. Cells were loaded with Dye for 40 minutes at 30° C., then washed 4-8 times with HBSS/HEPES Buffer to remove excess dye. Cells were preincubated at 37° C. for 3 minutes prior to placement into the FLIPR instrument. The reaction was carried out at 37° C. and was initiated by the addition of the appropriate dilutions of compounds. The transient calcium was captured and the peak height of the calcium curve determined and utilized for calculation of EC50 and efficacy using ActivityBase. Data is stored in the ActivityBase database under the unique identifier “Test Occasion”, which reflects the results of an assay run on a particular date and the individual responsible for the assay. Norepinephrine was the standard full agonist for evaluating alpha1 and alpha2 receptor activity.

[2] = molecular target: T2, human α2C receptor (Homo sapiens, UniProt P18825); experiment: FLIPR Ca+2 influx assay, α2C; details: for EC50: HEK 293 cells stably expressing human α2C receptor and chimeric G protein Gqi5; for Relative efficacy FLIPR α2C: relative efficacy compared to standard full agonist norepinephrine, HEK 293, human α2C/Gqi5
T2 construct: expressed in transfected cells; host or cells: HEK 293
T2 sequence (P18825 1-462): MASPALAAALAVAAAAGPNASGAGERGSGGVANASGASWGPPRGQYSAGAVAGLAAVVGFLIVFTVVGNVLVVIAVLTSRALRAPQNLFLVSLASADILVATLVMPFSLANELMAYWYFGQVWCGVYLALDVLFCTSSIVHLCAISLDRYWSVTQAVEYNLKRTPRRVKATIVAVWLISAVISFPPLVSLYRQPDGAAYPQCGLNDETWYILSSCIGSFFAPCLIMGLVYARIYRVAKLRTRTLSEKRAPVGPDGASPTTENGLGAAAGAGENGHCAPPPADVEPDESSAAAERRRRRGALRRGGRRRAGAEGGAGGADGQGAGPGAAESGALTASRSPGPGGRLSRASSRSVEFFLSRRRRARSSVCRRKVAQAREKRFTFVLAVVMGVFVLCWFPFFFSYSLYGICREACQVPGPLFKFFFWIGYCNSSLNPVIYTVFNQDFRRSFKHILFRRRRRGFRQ
Experimental: as §1, §2

[3] = molecular target: T3, human α2A receptor (Homo sapiens, UniProt P08913); experiment: FLIPR Ca+2 influx assay, α2A; details: for EC50: HEK 293 cells stably expressing human α2A receptor and chimeric G protein Gqi5; for Relative efficacy FLIPR α2A: relative efficacy compared to standard full agonist norepinephrine, HEK 293, human α2A/Gqi5
T3 construct: expressed in transfected cells; host or cells: HEK 293
T3 sequence (P08913 1-465): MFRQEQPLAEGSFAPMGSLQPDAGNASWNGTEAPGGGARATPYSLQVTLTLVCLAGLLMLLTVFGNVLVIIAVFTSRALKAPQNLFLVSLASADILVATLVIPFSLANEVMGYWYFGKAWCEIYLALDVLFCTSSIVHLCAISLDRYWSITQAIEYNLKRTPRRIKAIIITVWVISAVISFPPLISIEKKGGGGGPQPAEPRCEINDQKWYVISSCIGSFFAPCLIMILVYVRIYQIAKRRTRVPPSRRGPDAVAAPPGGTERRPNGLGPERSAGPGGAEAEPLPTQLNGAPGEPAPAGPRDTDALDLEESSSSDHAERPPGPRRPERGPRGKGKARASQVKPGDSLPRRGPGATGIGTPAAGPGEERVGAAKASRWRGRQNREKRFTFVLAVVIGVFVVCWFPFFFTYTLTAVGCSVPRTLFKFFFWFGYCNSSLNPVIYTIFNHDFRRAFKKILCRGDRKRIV
Experimental: as §1, §2

[4] = molecular target: T4, bovine α1A receptor (Bos taurus, UniProt P18130); experiment: FLIPR Ca+2 influx assay, α1A; details: for EC50: HEK 293 cells stably expressing bovine α1A receptor; for Relative efficacy FLIPR α1A: relative efficacy compared to standard full agonist norepinephrine, HEK 293, bovine α1A
T4 construct: expressed in transfected cells; host or cells: HEK 293
T4 sequence (P18130 1-466): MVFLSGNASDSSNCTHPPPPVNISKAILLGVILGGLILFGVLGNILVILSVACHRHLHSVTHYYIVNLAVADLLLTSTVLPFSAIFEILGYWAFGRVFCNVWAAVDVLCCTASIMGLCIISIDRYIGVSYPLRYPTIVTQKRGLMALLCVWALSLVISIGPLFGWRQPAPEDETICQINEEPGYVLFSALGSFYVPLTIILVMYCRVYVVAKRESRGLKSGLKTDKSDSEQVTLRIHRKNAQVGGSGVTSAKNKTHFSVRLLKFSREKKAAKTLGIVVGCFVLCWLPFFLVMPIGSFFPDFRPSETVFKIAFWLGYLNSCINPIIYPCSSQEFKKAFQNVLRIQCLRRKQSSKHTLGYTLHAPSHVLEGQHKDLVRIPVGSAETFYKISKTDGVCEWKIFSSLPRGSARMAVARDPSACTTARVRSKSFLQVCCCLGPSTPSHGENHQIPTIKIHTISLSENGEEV
Experimental: as §1, §2

[5] = molecular target: T5, rat α1B receptor (Rattus norvegicus, UniProt P15823); experiment: FLIPR Ca+2 influx assay, α1B; details: for EC50: HEK 293 cells stably expressing rat α1B receptor; for Relative efficacy FLIPR α1B: relative efficacy compared to standard full agonist norepinephrine, HEK 293, rat α1B
T5 construct: expressed in transfected cells; host or cells: HEK 293
T5 sequence (P15823 1-515): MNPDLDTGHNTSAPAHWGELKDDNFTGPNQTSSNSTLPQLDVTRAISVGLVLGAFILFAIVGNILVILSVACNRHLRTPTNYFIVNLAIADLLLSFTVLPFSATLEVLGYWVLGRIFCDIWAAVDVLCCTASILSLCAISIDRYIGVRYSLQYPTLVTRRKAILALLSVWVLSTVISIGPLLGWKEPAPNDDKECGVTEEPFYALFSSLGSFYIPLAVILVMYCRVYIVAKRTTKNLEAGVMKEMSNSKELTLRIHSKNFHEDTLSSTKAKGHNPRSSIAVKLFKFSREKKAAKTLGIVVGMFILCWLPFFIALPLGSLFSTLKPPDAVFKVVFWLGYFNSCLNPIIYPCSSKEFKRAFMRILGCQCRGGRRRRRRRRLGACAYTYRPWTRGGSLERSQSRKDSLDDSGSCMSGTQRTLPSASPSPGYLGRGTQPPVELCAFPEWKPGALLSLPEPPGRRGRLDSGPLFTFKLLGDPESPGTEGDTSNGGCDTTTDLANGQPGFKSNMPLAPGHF
Experimental: as §1, §2

[6] = HEK 293 cells stably expressing mouse α2B receptor and Gα16 protein

Structure (SMILES) | EC50 FLIPR α2B [1, 6] | Relative efficacy FLIPR α2B [1] | EC50 [2] [nM] | Relative efficacy FLIPR α2C [2] | EC50 [3] [nM] | Relative efficacy FLIPR α2A [3] | EC50 [4] [nM] | Relative efficacy FLIPR α1A [4] | EC50 [5] [nM] | Relative efficacy FLIPR α1B [5] | EC50 [1, 6] [nM]
CCN(Cc1ccccn1)C1CCc2cccc(O)c2C1 (centres unmarked) | – | 0.28 | > 10000 | 0 | > 10000 | 0 | > 10000 | 0 | > 10000 | 0 | 733
CCCN(Cc1ccccn1)C1CCc2cccc(OC)c2C1 (centres unmarked) | – | 0.63 | > 10000 | 0 | > 10000 | 0 | > 10000 | 0 | > 10000 | 0 | 363
CCCN(Cc1ccccn1)C1CCc2cccc(O)c2C1 (centres unmarked) [drawing 20] | – | 0.69 | > 10000 | 0 | > 10000 | 0 | > 10000 | 0 | > 10000 | 0 | 568
CCCN(Cc1ccncc1)C1CCc2cccc(O)c2C1 (centres unmarked) | – | 1.06 | – | ND (0.12) | > 10000 | 0 | > 10000 | 0 | > 10000 | 0 | 58
CCN(Cc1ccccn1)C1CCc2cccc(OC)c2C1 (centres unmarked) | – | 0.14 | > 10000 | 0 | > 10000 | 0 | > 10000 | 0 | > 10000 | 0 | 647
CCCN(Cc1ccncc1)[C@@H]1CCc2cccc(O)c2C1 | – | 0.8 | > 10000 | 0 | > 10000 | 0 | > 10000 | 0 | > 10000 | 0 | 4

Second part, the compound after the results:

EC50 FLIPR α2B [1, 6] | Relative efficacy FLIPR α2B [1] | EC50 [2] [nM] | Relative efficacy FLIPR α2C [2] | EC50 [3] [nM] | Relative efficacy FLIPR α2A [3] | EC50 [4] [nM] | Relative efficacy FLIPR α1A [4] | EC50 [5] [nM] | Relative efficacy FLIPR α1B [5] | EC50 [1, 6] [nM] | Structure (SMILES)
potent | 1.02 | 557 | 0.67 | 424 | 0.34 | > 10000 | 0 | > 10000 | 0 | – | CCCN(Cc1ccncc1)[C@@H]1CCc2cccc(OC)c2C1
– | 0.95 | > 10000 | 0 | > 10000 | 0 | – | ND (0.05) | > 10000 | 0 | 33 | CCCN(Cc1ccccn1)C1CCc2cccc(O)c2C1 (centres unmarked) [drawing 21]
– | 1.08 | 6700 | 0.17 | 5500 | 0.16 | – | ND (0.1) | – | ND (0.15) | 185 | CCN(Cc1ccncc1)C1CCc2cccc(O)c2C1 (centres unmarked)
– | 0.26 | 652 | 0.52 | 442 | 0.51 | > 10000 | 0 | > 10000 | 0 | 614 | CCN(Cc1cccnc1)C1CCc2cccc(OC)c2C1 (centres unmarked)
– | 0.91 | 253 | 0.72 | 203 | 0.74 | > 10000 | 0 | > 10000 | 0 | 78 | CCN(Cc1ccncc1)C1CCc2cccc(OC)c2C1 (centres unmarked)
– | 0.47 | – | ND (0.13) | > 1000 | 0 | > 10000 | 0 | > 10000 | 0 | 820 | CCCN(Cc1cccnc1)C1CCc2cccc(OC)c2C1 (centres unmarked)
– | 1.0 | 2150 | 0.69 | 1850 | 0.22 | > 10000 | 0 | > 10000 | 0 | 36 | CCCN(Cc1ccncc1)C1CCc2cccc(OC)c2C1 (centres unmarked)
